Measured values taken from patent US12552798B2, “Substituted imidazolecarboxamide as Bruton's tyrosine kinase inhibitors” (Henan Zhiwei Biomedicine Co., Ltd., priority 2019, dated 2026).
Read-outs that look alike come from different tables or passages of the source. Each block holds one compound with its values, some of them ahead of it.

Experiments:
[1] = biological target: BTK (Homo sapiens (Human), UniProt Q06187); test: BTK kinase inhibitory assay (ELISA); assay type: biochemical; conditions: 3 μmol/L ATP
Method: (§1) BTK, EGFR, BMX, or ITK Inhibitory Assay Procedure for BTK, BMX, EGFR and ITK Inhibitory Assay:
(§2) Kinase inhibitory activities of compounds were evaluated using the Enzyme-linked immunosorbent assay (ELISA). The kinase enzyme of BTK, BMX, EGFR and ITK were purchased from Carna Bioscience (Kobe, Japan). A total of 10 ng/mL antiphosphotyrosine (PY713) antibody (abcam, Cambridge Science Park, UK) was precoated in 96-well ELISA plates. The kinase enzymes in each reaction well were set to BTK (101.25 ng/mL), BMX (90 ng/mL), EGFR (90 ng/mL) or ITK (120 ng/mL) and incubated with indicated compounds in 1× reaction buffer (50 mmol/L HEPES pH 7.4, 20 mmol/L MgCl2, 0.1 mmol/L MnCl2, 1 mmol/L DTT) containing 20 μmol/L (the final concentration of substrate in ITK reaction was 30 μmol/L) substrate (NH2-ETVYSEVRK-biotin) at 25° C. for 1 h. Then, a total of 3 μmol/L ATP was added and the reaction was continued for 2 hrs. The products of reaction were transferred into 96-well ELISA plates containing antibody and incubated at 25° C. for 30 min. After incubation, the wells were washed with PBS and then incubated with horseradish peroxidase […]-conjugated streptavidin. The wells were visualized using 3,3′,5,5′-tetramethylbenzidine (TMB), and chromogenic reaction was ended with 2 mol/L H2SO4, the absorbance was read with a multimode plate reader (PerkinElmer, USA) at 450 nm. IC50 values and curve fits were obtained using Prism (GraphPad Software).

[2] = biological target: EGFR (Homo sapiens (Human), UniProt P00533); test: EGFR kinase inhibitory assay (ELISA); assay type: biochemical; conditions: for Selectivity Ratio (BTK and EGFR): EGFR IC50 relative to BTK IC50; for IC50: ELISA, 3 μmol/L ATP
Method: as §1, §2

[3] = biological target: BMX (Homo sapiens (Human), UniProt P51813); test: BMX kinase inhibitory assay (ELISA); assay type: biochemical; conditions: for Selectivity Ratio (BTK and BMX): BMX IC50 relative to BTK IC50; for IC50: ELISA, 3 μmol/L ATP
Method: as §1, §2

[4] = biological target: ITK (Homo sapiens (Human), UniProt Q08881); test: ITK kinase inhibitory assay (ELISA); assay type: biochemical; conditions: for IC50: ELISA, 3 μmol/L ATP; for Selectivity Ratio (BTK and ITK): ITK IC50 relative to BTK IC50
Method: as §1, §2

[5] = system: 293T; test: Cell antiproliferative activity assay (CellTiter-Glo), 293T; assay type: cell-based; conditions: 72 hs, read-out: Cell Growth IC50 (nM) 293T
Method: (§3) Cell Antiproliferative Activity Assay
(§4) Cell antiproliferative activity was evaluated by the CellTiter-Glo (Promega, USA) assay. Make 1000× compounds solution in DMSO, add 1 μl 1000× compounds to […] growth medium to make 20× compounds. Dilute cell suspensions in growth medium to desired density and 95 μl were taken to 96-well plate. Add 5 μl 20× compounds into 96-well plate according to the plate map. Final DMSO concentration in each well was 0.1%. Then the cell was incubated at 37° C., 5% CO2 for 72 hs. Equilibrate the assay plate to room temperature before measurement. Add 20 μl of CellTiter-Glo© Reagent into each well. Mix contents for 2 minutes on an orbital shaker to induce cell lysis. Incubate at room temperature for 10 minutes to stabilize luminescent signal. Record luminescence using EnVision Multilabel Reader (PerkinElmer). Cell viability (CV %) was calculated relative to vehicle (DMSO) treated control wells using following formula: Cell viability (%)=(RLU compound−RLU blank)/(RLU control−RLU blank)*100%. The IC50 values were calculated using GraphPad Prism 6.0 software, fitting to a 4-parameter equation to generate concentration response curves. All assays were conducted with three parallel samples and three repetitions.

[6] = system: TMD8; test: Cell antiproliferative activity assay (CellTiter-Glo), TMD8; assay type: cell-based; conditions: read-out: Cell Growth IC50 (nM) TMD8
Method: as §3, §4

EGFR, sequence (P00533 25-1210): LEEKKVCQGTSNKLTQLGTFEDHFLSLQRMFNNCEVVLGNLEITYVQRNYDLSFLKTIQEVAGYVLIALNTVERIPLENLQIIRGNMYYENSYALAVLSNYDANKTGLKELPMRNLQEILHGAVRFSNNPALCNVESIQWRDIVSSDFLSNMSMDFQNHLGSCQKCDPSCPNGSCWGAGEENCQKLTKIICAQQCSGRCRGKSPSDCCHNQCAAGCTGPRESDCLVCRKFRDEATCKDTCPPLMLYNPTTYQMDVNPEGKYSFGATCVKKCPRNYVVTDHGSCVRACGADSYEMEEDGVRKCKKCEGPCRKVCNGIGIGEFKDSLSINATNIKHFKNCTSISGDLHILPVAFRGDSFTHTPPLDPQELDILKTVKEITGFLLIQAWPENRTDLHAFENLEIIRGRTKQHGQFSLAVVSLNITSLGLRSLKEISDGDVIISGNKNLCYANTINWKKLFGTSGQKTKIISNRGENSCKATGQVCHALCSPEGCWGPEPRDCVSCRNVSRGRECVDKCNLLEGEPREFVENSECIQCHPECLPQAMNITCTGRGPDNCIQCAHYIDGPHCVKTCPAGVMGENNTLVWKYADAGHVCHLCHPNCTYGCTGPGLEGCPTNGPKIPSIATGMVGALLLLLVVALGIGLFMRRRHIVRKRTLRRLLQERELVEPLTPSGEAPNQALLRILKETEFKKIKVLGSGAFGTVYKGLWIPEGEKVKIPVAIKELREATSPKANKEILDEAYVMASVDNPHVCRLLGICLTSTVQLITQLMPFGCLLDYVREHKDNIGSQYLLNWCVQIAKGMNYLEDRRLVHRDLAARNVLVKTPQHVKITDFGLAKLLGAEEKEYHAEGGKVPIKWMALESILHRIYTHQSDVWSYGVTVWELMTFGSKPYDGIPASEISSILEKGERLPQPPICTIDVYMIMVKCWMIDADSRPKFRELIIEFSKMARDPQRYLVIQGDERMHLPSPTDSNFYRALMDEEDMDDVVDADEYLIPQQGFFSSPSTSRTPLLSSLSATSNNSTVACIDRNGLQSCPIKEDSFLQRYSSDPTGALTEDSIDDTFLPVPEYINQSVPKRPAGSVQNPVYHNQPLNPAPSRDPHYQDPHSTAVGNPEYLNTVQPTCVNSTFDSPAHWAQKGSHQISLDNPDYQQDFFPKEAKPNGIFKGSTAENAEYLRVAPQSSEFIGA
ITK, sequence (Q08881 whole entry): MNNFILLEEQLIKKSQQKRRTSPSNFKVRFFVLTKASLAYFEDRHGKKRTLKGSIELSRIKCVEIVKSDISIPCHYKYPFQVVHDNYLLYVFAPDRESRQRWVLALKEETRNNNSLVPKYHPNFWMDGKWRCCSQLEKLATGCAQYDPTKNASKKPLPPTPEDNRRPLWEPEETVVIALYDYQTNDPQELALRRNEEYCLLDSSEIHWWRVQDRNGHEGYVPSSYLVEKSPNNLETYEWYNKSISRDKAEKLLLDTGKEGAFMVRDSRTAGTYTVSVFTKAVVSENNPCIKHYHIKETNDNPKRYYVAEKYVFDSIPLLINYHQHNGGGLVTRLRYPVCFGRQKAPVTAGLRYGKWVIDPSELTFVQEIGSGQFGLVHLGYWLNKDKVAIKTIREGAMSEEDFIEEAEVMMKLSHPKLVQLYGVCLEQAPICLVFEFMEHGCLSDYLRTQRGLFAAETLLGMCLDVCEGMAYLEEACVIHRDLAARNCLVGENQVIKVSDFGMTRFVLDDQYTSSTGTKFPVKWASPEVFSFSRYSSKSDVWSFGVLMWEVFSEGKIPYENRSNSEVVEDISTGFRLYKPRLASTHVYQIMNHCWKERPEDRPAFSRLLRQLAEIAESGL
BMX, sequence (P51813 whole entry): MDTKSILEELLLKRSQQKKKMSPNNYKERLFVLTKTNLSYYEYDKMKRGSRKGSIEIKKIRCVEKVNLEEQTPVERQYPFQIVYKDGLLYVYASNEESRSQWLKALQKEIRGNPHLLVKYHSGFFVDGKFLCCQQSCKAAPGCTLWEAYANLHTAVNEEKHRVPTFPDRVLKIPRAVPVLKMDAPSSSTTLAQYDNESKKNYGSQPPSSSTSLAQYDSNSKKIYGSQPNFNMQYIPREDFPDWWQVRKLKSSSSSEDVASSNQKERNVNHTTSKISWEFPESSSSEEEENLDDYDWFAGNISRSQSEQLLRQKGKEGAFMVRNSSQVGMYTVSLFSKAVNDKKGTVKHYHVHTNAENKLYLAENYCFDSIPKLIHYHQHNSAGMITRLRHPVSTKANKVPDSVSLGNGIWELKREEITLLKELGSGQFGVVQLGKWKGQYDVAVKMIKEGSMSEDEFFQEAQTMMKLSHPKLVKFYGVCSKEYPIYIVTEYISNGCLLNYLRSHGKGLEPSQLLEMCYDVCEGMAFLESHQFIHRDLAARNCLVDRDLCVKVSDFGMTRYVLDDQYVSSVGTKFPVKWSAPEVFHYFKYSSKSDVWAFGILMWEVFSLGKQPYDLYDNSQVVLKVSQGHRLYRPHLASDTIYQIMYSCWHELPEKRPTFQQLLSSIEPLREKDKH
BTK, sequence (Q06187 whole entry): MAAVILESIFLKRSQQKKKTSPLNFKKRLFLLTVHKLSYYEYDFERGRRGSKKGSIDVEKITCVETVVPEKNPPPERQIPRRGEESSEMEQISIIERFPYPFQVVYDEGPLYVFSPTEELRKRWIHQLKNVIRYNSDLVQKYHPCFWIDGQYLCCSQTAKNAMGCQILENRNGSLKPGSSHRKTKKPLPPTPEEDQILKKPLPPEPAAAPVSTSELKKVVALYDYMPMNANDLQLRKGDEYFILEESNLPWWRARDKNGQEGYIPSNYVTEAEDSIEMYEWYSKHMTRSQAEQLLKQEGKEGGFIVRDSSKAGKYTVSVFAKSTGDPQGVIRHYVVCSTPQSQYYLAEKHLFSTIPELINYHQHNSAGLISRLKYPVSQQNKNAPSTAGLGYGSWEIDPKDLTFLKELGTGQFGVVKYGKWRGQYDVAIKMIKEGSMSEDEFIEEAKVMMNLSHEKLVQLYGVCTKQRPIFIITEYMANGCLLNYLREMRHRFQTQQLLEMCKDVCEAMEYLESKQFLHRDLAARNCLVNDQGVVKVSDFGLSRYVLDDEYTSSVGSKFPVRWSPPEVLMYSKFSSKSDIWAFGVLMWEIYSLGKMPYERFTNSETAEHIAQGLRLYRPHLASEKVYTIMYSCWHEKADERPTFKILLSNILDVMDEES

IC50 [1]: 46.5 nM
SMILES: C=CC(=O)N1CCC(C2CCNn3c2nc(-c2ccc(Oc4ccccc4)c(OC)c2)c3C(N)=O)CC1 (stereo not shown) [Example 29, 8-(1-acryloylpiperidin-4-yl)-2-(3-methoxy-4-phenoxyphenyl)-5,6,7,8-tetrahydroimidazo[1,2-b]pyridazine-3-carboxamide]

IC50 [1]: 49.4 nM
SMILES: C=CC(=O)N1CCC(C2CCNn3c2nc(-c2ccc(Oc4ccc(F)cc4)cc2)c3C(N)=O)CC1 (stereo not shown) [Example 12, 8-(1-acryloylpiperidin-4-yl)-2-(4-(4-fluorophenoxy)phenyl)-5,6,7,8-tetrahydroimidazo[1,2-b]pyridazine-3-carboxamide]

IC50 [1]: 212 nM
SMILES: COc1ccc(Oc2ccc(-c3nc4n(c3C(N)=O)NCCC4C3CCN(C(=O)/C=C/C(F)(F)F)CC3)cc2)cc1 (stereo not shown) [Example 17, (E)-2-(4-(4-methoxyphenoxy)phenyl)-8-(1-(4,4,4-trifluorobut-2-enoyl)piperidin-4-yl)-5,6,7,8-tetrahydroimidazo[1,2-b]pyridazine-3-carboxamide]

IC50 [1]: 778 nM
SMILES: CC#CC(=O)N1CCC(C2CCNn3c2nc(-c2ccc(Oc4ccc(OC)cc4)cc2)c3C(N)=O)CC1 (stereo not shown) [Example 16, 8-(1-(but-2-ynoyl)piperidin-4-yl)-2-(4-(4-methoxyphenoxy)phenyl)-5,6,7,8-tetrahydroimidazo[1,2-b]pyridazine-3-carboxamide]

IC50 [1]: 132 nM
SMILES: C=CC(=O)N1CCC(C2CCNn3c2nc(-c2ccc(Oc4ccccc4)cc2)c3C(N)=O)C1 (stereo not shown) [Example 21, 8-(1-acryloylpyrrolidin-3-yl)-2-(4-phenoxyphenyl)-5,6,7,8-tetrahydroimidazo[1,2-b]pyridazine-3-carboxamide]

IC50 [1]: 242 nM
SMILES: C=CC(=O)N1CCC(C2CCNn3c2nc(-c2ccc(OC)cc2)c3C(N)=O)CC1 (stereo not shown) [Example 27, 8-(1-acryloylpiperidin-4-yl)-2-(4-methoxyphenyl)-5,6,7,8-tetrahydroimidazo[1,2-b]pyridazine-3-carboxamide]

IC50 [1]: 42.6 nM
SMILES: C=CC(=O)N1CCC(C2CCNn3c2nc(-c2ccc(Oc4ccc(OC)cc4)cc2)c3C(N)=O)CC1 (stereo not shown) [Example 15, 8-(1-acryloylpiperidin-4-yl)-2-(4-(4-methoxyphenoxy)phenyl)-5,6,7,8-tetrahydroimidazo[1,2-b]pyridazine-3-carboxamide]

IC50 [1]: 37.4 nM
SMILES: C=CC(=O)N1CC(C2CCNn3c2nc(-c2ccc(Oc4ccccc4)cc2)c3C(N)=O)C1 (stereo not shown) [Example 18, 8-(1-acryloylazetidin-3-yl)-2-(4-phenoxyphenyl)-5,6,7,8-tetrahydroimidazo[1,2-b]pyridazine-3-carboxamide]

Selectivity Ratio (BTK and EGFR) [2]: 19.48 | IC50 [2]: 89.6 nM | Selectivity Ratio (BTK and BMX) [3]: 5.80 | IC50 [3]: 26.7 nM | IC50 [4]: 13600 nM | Selectivity Ratio (BTK and ITK) [4]: 2945 | IC50 [1]: 4.6 nM
SMILES: C=CC(=O)N1CCC(C2CCNn3c2nc(-c2ccc(Oc4ccccc4)cc2)c3C(N)=O)CC1 (stereo not shown) [Example 1, 8-(1-acryloylpiperidin-4-yl)-2-(4-phenoxyphenyl)-5,6,7,8-tetrahydroimidazo[1,2-b]pyridazine-3-carboxamide]
IC50 ([5]; Homo sapiens, HEK-293T): 573000 nM | IC50 ([6]; Homo sapiens, TMD8, TMD8, 72 hs): 12.3 nM

IC50 [1]: 61.5 nM
SMILES: NC(=O)c1c(-c2ccc(Oc3ccc(F)cc3)cc2)nc2n1NCCC2C1CCN(C(=O)/C=C/C(F)(F)F)CC1 (stereo not shown) [Example 14, (E)-2-(4-(4-fluorophenoxy)phenyl)-8-(1-(4,4,4-trifluorobut-2-enoyl)piperidin-4-yl)-5,6,7,8-tetrahydroimidazo[1,2-b]pyridazine-3-carboxamide]

Selectivity Ratio (BTK and EGFR) [2]: 3.05 | IC50 [2]: 16.5 nM | Selectivity Ratio (BTK and BMX) [3]: 11.94 | IC50 [3]: 64.5 nM | IC50 [4]: 27900 nM | Selectivity Ratio (BTK and ITK) [4]: 5160.6 | IC50 [1]: 5.4 nM
SMILES: C=CC(=O)Nc1ccccc1C1CCNn2c1nc(-c1ccc(Oc3ccccc3)cc1)c2C(N)=O (stereo not shown) [Example 22, 8-(2-acrylamidophenyl)-2-(4-phenoxyphenyl)-5,6,7,8-tetrahydroimidazo[1,2-b]pyridazine-3-carboxamide]

IC50 [1]: 122 nM
SMILES: CC#CC(=O)N1CCC(C2CCNn3c2nc(-c2ccc(Oc4ccc(F)cc4)cc2)c3C(N)=O)CC1 (stereo not shown) [Example 13, 8-(1-(but-2-ynoyl)piperidin-4-yl)-2-(4-(4-fluorophenoxy)phenyl)-5,6,7,8-tetrahydroimidazo[1,2-b]pyridazine-3-carboxamide]

IC50 [1]: 185 nM
SMILES: CN(C)C/C=C/C(=O)N1CCC(C2CCNn3c2nc(-c2ccc(Oc4ccccc4)cc2)c3C(N)=O)CC1 (stereo not shown) [Example 25, (E)-8-(1-(4-(dimethylamino)but-2-enoyl)piperidin-4-yl)-2-(4-phenoxyphenyl)-5,6,7,8-tetrahydroimidazo[1,2-b]pyridazine-3-carboxamide]

Selectivity Ratio (BTK and EGFR) [2]: 35.66 | IC50 [2]: 382 nM | Selectivity Ratio (BTK and BMX) [3]: 7.51 | IC50 [3]: 80.3 nM | IC50 [4]: > 30000 nM | Selectivity Ratio (BTK and ITK) [4]: >2803.7 | IC50 [1]: 10.7 nM
SMILES: C=CC(=O)N1CCC(C2CCn3c2nc(-c2ccc(Oc4ccccc4)c(OC)c2)c3C(N)=O)CC1 (stereo not shown) [Example 28, 7-(1-acryloylpiperidin-4-yl)-2-(3-methoxy-4-phenoxyphenyl)-6,7-dihydro-5H-pyrrolo[1,2-a]imidazole-3-carboxamide]

IC50 [1]: 285 nM
SMILES: N#C/C(=C\C1CC1)C(=O)N1CCC(C2CCNn3c2nc(-c2ccc(Oc4ccccc4)cc2)c3C(N)=O)CC1 (stereo not shown) [Example 8, 8-[1-(2-Cyano-3-cyclopropyl-acryloyl)-piperidin-4-yl]-2-(4-phenoxy-phenyl)-5,6,7,8-tetrahydro-imidazo[1,2-b]pyridazine-3-carboxamide]

IC50 [1]: 76.4 nM
SMILES: CC#CC(=O)N1CCC(C2CCNn3c2nc(-c2ccc(Oc4ccccc4)cc2)c3C(N)=O)CC1 (stereo not shown) [Example 2, 8-[1-(1-Oxo-but-2-ynyl)-piperidin-4-yl]-2-(4-phenoxy-phenyl)-5,6,7,8-tetrahydro-imidazo[1,2-b]pyridazine-3-carboxamide]

Selectivity Ratio (BTK and EGFR) [2]: 9.75 | IC50 [2]: 81.9 nM | Selectivity Ratio (BTK and BMX) [3]: 3.70 | IC50 [3]: 31.1 nM | IC50 [4]: 4660 nM | Selectivity Ratio (BTK and ITK) [4]: 555.2 | IC50 [1]: 8.4 nM
SMILES: C=CC(=O)N1CCC(C2CCn3c2nc(-c2ccc(Oc4ccccc4)cc2)c3C(N)=O)CC1 (stereo not shown) [Example 26, 7-(1-acryloylpiperidin-4-yl)-2-(4-phenoxyphenyl)-6,7-dihydro-5H-pyrrolo[1,2-a]imidazole-3-carboxamide]

Selectivity Ratio (BTK and EGFR) [2]: 5.87 | IC50 [2]: 170 nM | Selectivity Ratio (BTK and BMX) [3]: 1.86 | IC50 [3]: 53.9 nM | IC50 [4]: > 30000 nM | Selectivity Ratio (BTK and ITK) [4]: >1038 | IC50 [1]: 28.9 nM
SMILES: C=CC(=O)N1CCC(C2CCNn3c2nc(-c2ccc(Oc4ccccc4)cc2)c3C(N)=O)CC1 (single isomer, unassigned) [1b (peak 2)]
IC50 [5]: 5240 nM | IC50 ([6]; TMD8, 72 hs): 102 nM
